Tested on: cholesterol in blood
Test: Reduction of blood cholesterol in rats fed a cholesterol diet
Format: in vivo
Conditions: male rats, 3 days, relative value: control group = 0, normal group = 100, * 5%, ** 1% significance over control; for % Inhibition (blood cholesterol), Dose in Diet 0.03%: 0.03% test compound in diet with 1% cholesterol and 0.25% sodium cholate; for % Inhibition (blood cholesterol), Dose in Diet 0.1%: 0.1% test compound in diet with 1% cholesterol and 0.25% sodium cholate
Protocol: A completely synthetic diet containing 1% of cholesterol, 0.25% of sodium cholate and 0.03% and 0.1% of the test compound is given to a group of 6 male rats having a body weight of about 50 g consecutively for 3 days, and the rats are fasted overnight. Then, the rats are decapitated, and their blood is collected to determine the cholesterol concentration in the collected blood. The concentration of cholesterol in blood is measured with Technicon Autoanalyzer (Technicon Laboratory: Method File N-24a).
Each value shown in the Table is a relative value determined based on the supposition that the value of the control group (the cholesterol-administered group) is 0 and the value of the normal group (the non-cholestero-administered group) is 100.

Compound	% Inhibition (blood cholesterol), Dose in Diet 0.03% [%]	% Inhibition (blood cholesterol), Dose in Diet 0.1% [%]
N-Methyl-N-phenyldihydroabietamide	-8	27
N-α-Phenylethyldihydroabietamide	71	99
N-Benzyldihydroabietamide	25	64
CC(C)C1=CC2=CC[C@@H]3[C@](C)(CCC[C@@]3(C)C(=O)NC3CCCC3)[C@H]2CC1 [N-Cyclopentylabietamide]	11	32

From patent publication US4210671A, “Abietamide derivatives, their production and use” (priority 1974, dated 1980)
